Experiments:
catalepsy = experiment: Ability of a drug to induce catalepsy (extrapyramidal motor side effects); assay type: in vivo, rat; conditions: measured in e.g. rodents by the ability of a drug to induce catalepsy
Procedure: (§1) Extrapyramidal motor side effects in e.g. rodents are measured by the ability of a drug to induce catalepsy. Catalepsy is defined as a state where an animal continues to remain in an unnormal (nonphysiological 'uncomfortable') posture for a long time (e.g.: M.E. Stanley and S.D. Glick, Neuropharmacology, 1996; 15: 393-394; C.J.E. Niemegeers and P. Janssen, Life Sci., 1979, […]). For example, if a hindpaw of a rat is placed on an elevated level, e.g. a platform elevated 3 cm above ground level, a normal rat immediately withdraws the hindpaw from the platform to the ground level. A cataleptic rat remains in this unnatural posture even for minutes.

[1] = test system: catalepsy induced by conventional antidopaminergic drugs; experiment: Catalepsy induced by conventional antidopaminergic drugs such as haloperidol; conditions: rat, in vivo
Procedure: as §1

[2] = test system: Parkinsonian cynomolgus monkey; experiment: MPTP Parkinsonian cynomolgus monkey, Laval University Disability Scale; assay type: in vivo
Excerpt: A typical animal model for idiopathic Parkinson's disease is the Parkinsonian cynomolgus monkey according to P.J. Blanchet et al., Exp. Neurology 1998; 153: 214-222. Monkeys render parkinsonian by repeated injections of 1-methyl-4-phenyl-1,2,3,6-tetrahydropyridine (MPTP).
Parkinsonian symptoms are qualitatively assessed by the use of the Laval University Disability Scale (B. Gomez-Mancilla et al., 1993; Mov. Disord. 8: 144-150) measuring the following symptoms: posture, mobility, climbing, gait, holding food, vocalizing, grooming, social interaction.

[3] = test system: striatonigral degeneration approach in the rat; experiment: Striatonigral degeneration model (6-hydroxydopamine plus quinolinic acid), turning behavior; assay type: in vivo; conditions: automated recorder
Excerpt: Another more recent animal model is the striatonigral degeneration approach in the rat according to G.K. Wenning et al., J. Neural Transm. Suppl., 1999; 55: 103-113. Rats receive an unilateral injection of 6-hydroxydopamine into the left medial forebrain bundle followed by an injection of quinolinic acid into the ipsilateral striatum inducing nigrostriatal degeneration. The degeneration results in turning behavior to a challenge with dopaminomimetics such as apomorphine or amphetamine. Turning behavior is measured by an automated recorder.

[4] = test system: patients with Huntington's disease; experiment: Placebo-controlled add-on trial in Huntington's disease; assay type: in vivo; conditions: AIMS, UHDRS, video recordings; add-on 2.5 to 20 mg b.i.d. versus placebo
Procedure: A typical trial to establish the effect of the compounds according to the invention on chorea, voluntary motor performance, and functional disability in patients with Huntington's disease encompasses 32 genetically diagnosed patients. Trans-4-[4-(3-chloro-4-methoxybenzylamino)-benzothieno-[2,3-d]pyrimidin-2-yl]cyclohexanecarboxylic acid sodium or ethanolamine salt or placebo is administered as "add on" to the conventional treatment, which is maintained unchanged during the whole study. The dose of blinded medication is titrated over a period of 3 weeks in a range from 2.5 to 20 mg b.i.d. Then the medication is held constant for 1 week. Assessments are performed in the week before and at the last day of the trial. Chorea is scored using the abnormal involuntary movement scale (AIMS, W. Guy, in: ECDEU assessment manual. Rockville MD: US dept. of health, education and welfare, 1976: 534-537), the unified Huntington's disease rating scale (UHDRS, Huntington study group, 1996, Movement Disord, 11: 136-42), and judgement of video recordings. Voluntary motor performance is assessed using the UHDRS motor scale. Patients and their partners complete a questionnaire regarding functional disability.

mutant dystonic hamster = experiment: Mutant dystonic hamster, scored dystonic attacks; assay type: in vivo; conditions: scoring system
Excerpt: A typical animal model is the mutant dystonic hamster according to A. Richter and W. Löscher, Prog. Neurobiol. 1998; 54: 633-677. In this genetically dystonic hamsters, dystonic attacks are provoked by taking the animal from the home cage and placing it on a balance. The dystonic syndrome consists of a sequence of abnormal movements, and the severity of the single symptoms is rated by a scoring system.

[5] = test system: neuroleptics sensitized monkey; experiment: Neuroleptics sensitized monkey, haloperidol challenge; assay type: in vivo; conditions: given after haloperidol challenge; scoring system
Excerpt: Another typical animal model is the neuroleptics sensitized monkey according to D.E. Casey, Psychopharmacology, 1996; 124: 134-140. Monkeys treated repeatedly with conventional neuroleptics are highly sensitive to a subsequent challenge dose of neuroleptic drugs. When challenged, the monkeys immediately show extrapyramidal motor side effects such as dystonia, dyskinesias, akathisia, and bradykinesia which are rated by a scoring system. The conventional neuroleptic drug haloperidol is given as a challenge.

[6] = test system: Campus Syndrome in the Pietrain pig; experiment: Campus Syndrome tremor model, accelerometric recording; assay type: in vivo
Excerpt: (§2) Typical genetic models in mutant animals are the Campus Syndrome in the Pietrain pig according to A. Richter et al. (Exp. Neurology, 1995; 134: 205-213) or the Weaver mutant mouse according to J.R. Simon and B. Ghetti (Mol. Neurobiol., 1994; 9: 183-189). In the Campus Syndrome model, these mutant pigs show a high-frequency tremor when standing and during locomotion, but not while lying at rest. Assessment of tremor is made by accelerometric recording. In the Weaver mutant mouse, degenerative cerebellar atrophy is fould in association with tremor, gait instability, and toppling over the sides after a few steps.
(§3) Trans-4-[4-(3-chloro-4-methoxybenzylamino)-benzothieno-[2,3-d]pyrimidin-2-yl]cyclohexanecarboxylic acid or a physiologically acceptable salt thereof improve the Campus Syndrome in the Pietrain pig, i.e. reduce disabling tremor when standing and during locomotion, and enhance locomotor activity in the Weaver mutant mouse.

Weaver mutant mouse = experiment: Weaver mutant mouse, locomotor activity in activity cages; assay type: in vivo
Excerpt: as §2, §3

[7] = test system: oxotremorine-induced tremor; experiment: Oxotremorine-induced tremor, rating scale; assay type: in vivo
Procedure: A typical animal model for drug-induced tremors is the oxotremorine-induced tremor (e.g. H. Hallberg and O. Almgren, Acta Physiol. Scand., 1987; 129: 407-13; J.G. Clement and W.R. Dyck, J. Pharmacol. Meth., 1989; 22: 25-36). Oxotremorine induces tremor which is measured by a rating scale. Trans-4-[4-(3-chloro-4-methoxybenzylamino)-benzothieno-[2,3-d]pyrimidin-2-yl]cyclohexanecarboxylic acid or a physiologically acceptable salt thereof inhibit oxotremorine-induced tremors.

posthypoxic myoclonus = experiment: Posthypoxic myoclonus after cardiac arrest; assay type: in vivo; conditions: rats resuscitated after cardiac arrest for 8 minutes
Procedure: A typical animal model for myoclonus is myoclonus induced by an acute hypoxic episode according to D.D. Truong et al., Mov. Dsiord., 1994; 9: 201-206). In this model of posthypoxic myoclonus, rats undergo a cardiac arrest for 8 minutes and are resuscitated thereafter. Myoclonic jerks occur spontaneously but can be provoked by auditory stimulation, too, worsening over the days following cardiac arrest.

COc1ccc(CNc2nc([C@H]3CC[C@H](C(=O)O)CC3)nc3sc4ccccc4c23)cc1Cl [trans-4-[4-(3-chloro-4-methoxybenzylamino)-benzothieno-[2,3-d]pyrimidin-2-yl]cyclohexanecarboxylic acid]
liability to induce extrapyramidal side effects (catalepsy): extremely low liability to induce extrapyramidal side effects
prevention of catalepsy induced by conventional antidopaminergic drugs [1]: able to prevent catalepsy
reversal of already existing catalepsy induced by conventional antidopaminergic drugs such as haloperidol [1]: reverses already existing catalepsy
parkinsonian symptoms ([2]; Laval University Disability Scale): reduced all the parkinsonian symptoms
total activity ([2]; MPTP monkeys): increased
Turning behavior induced by apomorphine or amphetamine [3]: dose-dependently antagonized
voluntary and involuntary motor performance [4]: significant improvement
severity of dystonic symptoms (mutant dystonic hamster): dose-dependently reduce
extrapyramidal motor side effects [5]: dose-dependently reduce
disabling tremor when standing and during locomotion [6]: reduce
locomotor activity (Weaver mutant mouse): enhance
oxotremorine-induced tremors [7]: inhibit
number of spontaneous and autitory-evoked myoclonic jerks (posthypoxic myoclonus): dose-dependently reduce
